From PubChem BioAssay (NCI)
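Following 48 hours of exposure in 96-well plates, responses at five concentrations were used to interpolate endpoints linearly. GI50 is the concentration that inhibits growth by half. TGI: concentration producing complete growth inhibition.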

Experiments:
Test in all cases: growth of human tumour cells (NCI), 48 h
786-0 renal = test system: 786-0 renal
A498 renal = test system: A498 renal
A549 NSCLC = test system: A549 NSCLC
ACHN renal = test system: ACHN renal
BT-549 breast = test system: BT-549 breast
CAKI-1 renal = test system: CAKI-1 renal
CCRF-CEM leukemia = test system: CCRF-CEM leukemia
COLO 205 colon = test system: COLO 205 colon
DU-145 prostate = test system: DU-145 prostate
EKVX NSCLC = test system: EKVX NSCLC
HCC-2998 colon = test system: HCC-2998 colon
HCT-116 colon = test system: HCT-116 colon
HCT-15 colon = test system: HCT-15 colon
HL-60(TB) leukemia = test system: HL-60(TB) leukemia
HOP-62 NSCLC = test system: HOP-62 NSCLC
HOP-92 NSCLC = test system: HOP-92 NSCLC
HS 578T breast = test system: HS 578T breast
HT29 colon = test system: HT29 colon
IGROV1 ovarian = test system: IGROV1 ovarian
K-562 leukemia = test system: K-562 leukemia
KM12 colon = test system: KM12 colon
LOX IMVI melanoma = test system: LOX IMVI melanoma
M14 melanoma = test system: M14 melanoma
MALME-3M melanoma = test system: MALME-3M melanoma
MCF7 breast = test system: MCF7 breast
MDA-MB-231 breast = test system: MDA-MB-231 breast
MDA-MB-435 = test system: MDA-MB-435
MOLT-4 leukemia = test system: MOLT-4 leukemia
NCI-H226 lung = test system: NCI-H226 lung
NCI-H23 lung = test system: NCI-H23 lung
NCI-H460 lung = test system: NCI-H460 lung
NCI-H522 lung = test system: NCI-H522 lung
NCI/ADR-RES ovarian = test system: NCI/ADR-RES ovarian
OVCAR-3 ovarian = test system: OVCAR-3 ovarian
OVCAR-4 ovarian = test system: OVCAR-4 ovarian
OVCAR-5 ovarian = test system: OVCAR-5 ovarian
OVCAR-8 ovarian = test system: OVCAR-8 ovarian
PC-3 prostate = test system: PC-3 prostate
RPMI-8226 leukemia = test system: RPMI-8226 leukemia
RXF 393 renal = test system: RXF 393 renal
SF-268 CNS = test system: SF-268 CNS
SF-295 CNS = test system: SF-295 CNS
SF-539 CNS = test system: SF-539 CNS
SK-MEL-2 melanoma = test system: SK-MEL-2 melanoma
SK-MEL-28 melanoma = test system: SK-MEL-28 melanoma
SK-MEL-5 melanoma = test system: SK-MEL-5 melanoma
SK-OV-3 ovarian = test system: SK-OV-3 ovarian
SN12C renal = test system: SN12C renal
SNB-19 CNS = test system: SNB-19 CNS
SNB-75 CNS = test system: SNB-75 CNS
SR leukemia = test system: SR leukemia
SW-620 colon = test system: SW-620 colon
T-47D breast = test system: T-47D breast
TK-10 renal = test system: TK-10 renal
U251 CNS = test system: U251 CNS
UACC-257 melanoma = test system: UACC-257 melanoma
UACC-62 melanoma = test system: UACC-62 melanoma
UO-31 renal = test system: UO-31 renal

`CC(C)Oc1ccc(-c2nn([C@@H](C)c3oc4ccc(F)cc4c(=O)c3-c3cccc(F)c3)c3ncnc(N)c23)cc1F` was tested, and the GI50 (786-0 renal) was 12.8 µM, the TGI (786-0 renal) was > 100 µM and the GI50 (A498 renal) was 76.1 µM. The TGI (A498 renal) was > 100 µM, the GI50 (A549 NSCLC) was 7.7 µM and the TGI (A549 NSCLC) was > 100 µM. For the same compound, the GI50 (ACHN renal) was 50.1 µM, the TGI (ACHN renal) was > 100 µM and the GI50 (BT-549 breast) was 6.99 µM. The TGI (BT-549 breast) was > 100 µM, the GI50 (CAKI-1 renal) was 5.6 µM and the TGI (CAKI-1 renal) was > 100 µM. The GI50 (CCRF-CEM leukemia) was 6.17 µM, the TGI (CCRF-CEM leukemia) was > 100 µM and the GI50 (COLO 205 colon) was 67.3 µM. The TGI (COLO 205 colon) was > 100 µM, the GI50 (DU-145 prostate) was > 100 µM and the TGI (DU-145 prostate) was > 100 µM. For the same compound, the GI50 (EKVX NSCLC) was 8.61 µM, the TGI (EKVX NSCLC) was > 100 µM and the GI50 (HCC-2998 colon) was > 100 µM. For the same compound, the TGI (HCC-2998 colon) was > 100 µM, the GI50 (HCT-116 colon) was 8.96 µM and the TGI (HCT-116 colon) was > 100 µM. For the same compound, the GI50 (HCT-15 colon) was 9.33 µM, the TGI (HCT-15 colon) was > 100 µM and the GI50 (HL-60(TB) leukemia) was 30.4 µM. For the same compound, the TGI (HL-60(TB) leukemia) was > 100 µM, the GI50 (HOP-62 NSCLC) was > 100 µM and the TGI (HOP-62 NSCLC) was > 100 µM. For the same compound, the GI50 (HOP-92 NSCLC) was 4.71 µM, the TGI (HOP-92 NSCLC) was > 100 µM and the GI50 (HS 578T breast) was 47.5 µM. The TGI (HS 578T breast) was > 100 µM, the GI50 (HT29 colon) was 21.8 µM and the TGI (HT29 colon) was > 100 µM. The GI50 (IGROV1 ovarian) was > 100 µM, the TGI (IGROV1 ovarian) was > 100 µM and the GI50 (K-562 leukemia) was 5.68 µM. For the same compound, the TGI (K-562 leukemia) was > 100 µM, the GI50 (KM12 colon) was 25.8 µM and the TGI (KM12 colon) was > 100 µM. The GI50 (LOX IMVI melanoma) was > 100 µM, the TGI (LOX IMVI melanoma) was > 100 µM and the GI50 (M14 melanoma) was > 100 µM. For the same compound, the TGI (M14 melanoma) was > 100 µM, the GI50 (MALME-3M melanoma) was > 100 µM and the TGI (MALME-3M melanoma) was > 100 µM. The GI50 (MCF7 breast) was 6.79 µM, the TGI (MCF7 breast) was > 100 µM and the GI50 (MDA-MB-231 breast) was 22.9 µM. For the same compound, the TGI (MDA-MB-231 breast) was > 100 µM, the GI50 (MDA-MB-435) was > 100 µM and the TGI (MDA-MB-435) was > 100 µM. For the same compound, the GI50 (MOLT-4 leukemia) was 9.28 µM, the TGI (MOLT-4 leukemia) was > 100 µM and the GI50 (NCI-H226 lung) was 26.9 µM. The TGI (NCI-H226 lung) was > 100 µM, the GI50 (NCI-H23 lung) was 60.9 µM and the TGI (NCI-H23 lung) was > 100 µM. For the same compound, the GI50 (NCI-H460 lung) was 17.6 µM, the TGI (NCI-H460 lung) was > 100 µM and the GI50 (NCI-H522 lung) was > 100 µM. For the same compound, the TGI (NCI-H522 lung) was > 100 µM, the GI50 (NCI/ADR-RES ovarian) was 20.7 µM and the TGI (NCI/ADR-RES ovarian) was > 100 µM. For the same compound, the GI50 (OVCAR-3 ovarian) was 30.2 µM, the TGI (OVCAR-3 ovarian) was > 100 µM and the GI50 (OVCAR-4 ovarian) was > 100 µM. The TGI (OVCAR-4 ovarian) was > 100 µM, the GI50 (OVCAR-5 ovarian) was > 100 µM and the TGI (OVCAR-5 ovarian) was > 100 µM. The GI50 (OVCAR-8 ovarian) was 11.8 µM, the TGI (OVCAR-8 ovarian) was > 100 µM and the GI50 (PC-3 prostate) was 4.68 µM. For the same compound, the TGI (PC-3 prostate) was > 100 µM, the GI50 (RPMI-8226 leukemia) was 6.7 µM and the TGI (RPMI-8226 leukemia) was > 100 µM. For the same compound, the GI50 (RXF 393 renal) was 4.36 µM, the TGI (RXF 393 renal) was > 100 µM and the GI50 (SF-268 CNS) was 19.1 µM. The TGI (SF-268 CNS) was > 100 µM, the GI50 (SF-295 CNS) was > 100 µM and the TGI (SF-295 CNS) was > 100 µM. For the same compound, the GI50 (SF-539 CNS) was 15.2 µM, the TGI (SF-539 CNS) was > 100 µM and the GI50 (SK-MEL-2 melanoma) was > 100 µM. The TGI (SK-MEL-2 melanoma) was > 100 µM, the GI50 (SK-MEL-28 melanoma) was > 100 µM and the TGI (SK-MEL-28 melanoma) was > 100 µM. For the same compound, the GI50 (SK-MEL-5 melanoma) was 48.9 µM, the TGI (SK-MEL-5 melanoma) was > 100 µM and the GI50 (SK-OV-3 ovarian) was > 100 µM. For the same compound, the TGI (SK-OV-3 ovarian) was > 100 µM, the GI50 (SN12C renal) was 9.89 µM and the TGI (SN12C renal) was > 100 µM. For the same compound, the GI50 (SNB-19 CNS) was 32.5 µM, the TGI (SNB-19 CNS) was > 100 µM and the GI50 (SNB-75 CNS) was > 100 µM. For the same compound, the TGI (SNB-75 CNS) was > 100 µM, the GI50 (SR leukemia) was 4.93 µM and the TGI (SR leukemia) was > 100 µM. For the same compound, the GI50 (SW-620 colon) was > 100 µM, the TGI (SW-620 colon) was > 100 µM and the GI50 (T-47D breast) was 5.42 µM. The TGI (T-47D breast) was > 100 µM, the GI50 (TK-10 renal) was 7.29 µM and the TGI (TK-10 renal) was > 100 µM. For the same compound, the GI50 (U251 CNS) was 23.9 µM, the TGI (U251 CNS) was > 100 µM and the GI50 (UACC-257 melanoma) was > 100 µM. The TGI (UACC-257 melanoma) was > 100 µM, the GI50 (UACC-62 melanoma) was > 100 µM and the TGI (UACC-62 melanoma) was > 100 µM. The GI50 (UO-31 renal) was 3.81 µM and the TGI (UO-31 renal) was > 100 µM.
